{
  "source": "patent US20070026042A1",
  "about": "“System for treating aneurysmal disease” (priority 2005, published 2007)",
  "key": {"[1]": {"test": "Cell viability assay (cytotoxicity)", "type": "cell-based", "text": "(§1) The multiple curves represent various concentrations of topotecan ranging from zero to three hundred nanomolar concentrations.\n(§2) The multiple curves represent various concentrations of etoposide ranging from zero to eight hundred nanomolar concentrations."}, "[2]": {"system": "human coronary artery smooth muscle cells", "test": "Anti-proliferative activity in cultured human coronary artery smooth muscle cells", "type": "cell-based", "text": "The multiple curves represent various concentrations of mycophenolic acid ranging from zero to one thousand nanomolar concentrations.\nFIG. […]\nThe multiple curves represent various concentrations of cladribine ranging from zero to nine hundred nanomolar concentrations.\nas §1, §2\nThe multiple curves represent various concentrations of Panzem® ranging from zero to 100 micromolar concentrations."}, "[3]": {"system": "infrarenal abdominal aorta", "test": "Elastase-induced abdominal aortic aneurysm model in rats", "type": "in vivo, Wistar rats", "settings": "for relative efficacy in suppressing aneurysmal dilatation compared to Dox at the same dose / inhibition of aortic dilatation induced by elastase perfusion: 15 mg/kg/day; for inhibition of aortic dilatation induced by elastase perfusion: vs saline, Student's t-test", "text": "Male Wistar rats (350-400 g) were subjected to perfusion of an isolated segment of the infrarenal abdominal aorta with 50 units of porcine pancreatic elastase, using the method described by Anidjar. et al. (Anidjar, S, Salzmann, J L, Generic, D, Lagneau, P, Camilleri, J P, and Michel, J B, “Elastase induced experimental aneurysms in rats,” Circulation 82:973-981 (1990); Halpern et al. (Halpern, V J. Liao, Nackman, G B, Gandhi, R H, Irizarry, E, Scholes, J V, Ramey, W G, and Tilson, M D, “The elastase infusion model of experimental aortic aneurysms: Synchrony of induction of endogenous protinases with matrix destruction and inflammatory cell response,” J. Vasc. Surg. […] Surg 23:336-346 (1996)). This method is an accepted model for experimental induction of abdominal aortic aneurysms. The animals (n=6 rats in each group) were then treated with twice-daily subcutaneous injections of either saline vehicle (control), or various doses of doxycycline (Dox) or one of four different, non-antibiotic, chemically-modified tetracyclines (CMTs; CollaGenex, Inc., Newtown, Pa.). Aortic diameter (AD) was measured with microcalipers before and after elastase perfusion, and just prior to sacrifice on day 7. Abdominal aortic aneurysms were defined as an increase in final AD to at least twice that measured before perfusion (≥ 100% increase). Aortic tissues from two animals in each group were perfusion-fixed with 10% neutral buffered formalin, embedded in paraffin, and stained with Verhoeff-van Geisen (WG) for elastin. Tissues from the remaining animals were extracted, normalized to total protein, and analyzed by gelatin substrate zymography as described (Thompson et al. 1995; Halpern et al. 1994; Petrinec 1996).\nFor saline-treated control animals, mean AD increased by 125.±.18%, and 5 of the 6 (83%) of the animals had abdominal aortic aneurysms as defined."}, "tumor cell lines": {"system": "tumor cell lines", "settings": "Woo et al., J. Med Chem 2002; cited from earlier work"}, "[4]": {"system": "human coronary artery smooth muscle cell", "test": "MTS cytotoxicity assay", "type": "cell-based", "settings": "6.6 nanomolar to 30,000.00 nanomolar, FIG. 69", "text": "Typically, a control is utilized to determine baseline toxicity."}, "[5]": {"test": "Liquid formulations of sirolimus and analogs: drug concentration by liquid chromatography, visual observation", "type": "physicochemical", "settings": "Vitamin E TPGS, water, ethanol less than two percent", "description": "Certain excipients, such as Vitamin E TPGS and BHT may be utilized to enhance the storage stability of sirolimus compounds through their anti-oxidation properties.\nThe concentrations of each constituent were determined by liquid chromatography and are presented as weight by volume figures.\nIn another exemplary embodiment, the liquid formulation of sirolimus comprises water and ethanol as co-solvents and Vitamin E TPGS as the excipient. The liquid formulation was created utilizing the following process. Two hundred milligrams of sirolimus and two grams of ethanol were added to a pre-weighed twenty milliliter scintillation vial. The vial was vortexed and sonicated until the sirolimus was completely dissolved. Approximately six hundred milligrams of Vitamin E TPGS was then added to the solution of ethanol and sirolimus. The vial was vortexed again until a clear yellowish solution was obtained. Nitrogen gas was then used to reduce the amount of ethanol in the vial to approximately two hundred twenty-nine milligrams. In a separate vial, three hundred milligrams of Vitamin E TPGS was dissolved in eleven milliliters of purified water while undergoing vortexing. The Vitamin E TPGS and water solution was then added to the first vial containing the sirolimus, Vitamin E TPGS and ethanol. The first vial was then vortexed vigorously and continuously for three minutes. […]"}, "[6]": {"settings": "synchronized cells, two percent fetal bovine serum"}, "[7]": {"settings": "non-synchronized cells, two percent fetal bovine serum"}},
  "data": [
    {"compound": "CC[C@@]1(O)C(=O)OCc2c1cc1n(c2=O)Cc2cc3c(CN(C)C)c(O)ccc3nc2-1", "note": "[topotecan]", "values": [
      {"measurement": "cytotoxicity in cell viability assay", "setting": "[1]; concentrations up to one micromolar", "result": "non-cytotoxic"},
      {"measurement": "effect of addition to rapamycin-treated cells on the anti-proliferative rapamycin dose response curve", "setting": "[2]; [6]", "result": "leftward and upward shift"}
    ]},
    {"compound": "4-dedimethylamino-12a-deoxytetracycline [CMT-7]", "values": [
      {"measurement": "relative efficacy in suppressing aneurysmal dilatation compared to Dox at the same dose", "setting": "[3]", "result": 92, "unit": "%"},
      {"measurement": "inhibition of aortic dilatation induced by elastase perfusion", "setting": "[3]", "result": "statistically significant"}
    ]},
    {"compound": "NC(=O)C1=C(O)C[C@@H]2C[C@@H]3Cc4cccc(O)c4C(=O)C3=C(O)[C@]2(O)C1=O", "note": "[CMT-3, 6-demethyl-6-deoxy 4-dedimethylaminotetracycline]", "values": [
      {"measurement": "relative efficacy in suppressing aneurysmal dilatation compared to Dox at the same dose", "setting": "[3]", "result": 92, "unit": "%"},
      {"measurement": "inhibition of aortic dilatation induced by elastase perfusion", "setting": "[3]", "result": "statistically significant"}
    ]},
    {"compound": "COc1c(C)c2c(c(O)c1C/C=C(\\C)CCC(=O)O)C(=O)OC2", "note": "[mycophenolic acid]", "values": [
      {"measurement": "effect of addition to rapamycin-treated cells on the anti-proliferative rapamycin dose response curve", "setting": "[2]; [7]", "result": "leftward and upward shift"}
    ]},
    {"compound": "C[C@H]1c2cccc(O)c2C(O)=C2C(=O)[C@]3(O)C(O)=C(C(N)=O)C(=O)C[C@@H]3[C@@H](O)[C@@H]21", "note": "[CMT-8, 6-α-deoxy-5-hydroxy-4-dedimethylaminotetracycline]", "values": [
      {"measurement": "relative efficacy in suppressing aneurysmal dilatation compared to Dox at the same dose", "setting": "[3]", "result": 105, "unit": "%"},
      {"measurement": "inhibition of aortic dilatation induced by elastase perfusion", "setting": "[3]", "result": "statistically significant"}
    ]},
    {"compound": "CC1(O)c2c(Cl)ccc(O)c2C(=O)C2=C(O)C3(O)C(=O)C(C(N)=O)=C(O)CC3CC21", "note": "(stereo not drawn) [CMT-4, 4-dedimethylamino-7-chlorotetra-cycline]", "values": [
      {"measurement": "relative efficacy in suppressing aneurysmal dilatation compared to Dox at the same dose", "setting": "[3]", "result": 75, "unit": "%"},
      {"measurement": "inhibition of aortic dilatation induced by elastase perfusion", "setting": "[3]", "result": "did not reach statistical significance"}
    ]},
    {"compound": "CC(/C=C/C(=O)NO)=C\\[C@@H](C)C(=O)c1ccc(N(C)C)cc1", "note": "[trichostatin A]", "values": [
      {"measurement": "anti-proliferative IC50's", "setting": "tumor cell lines", "result": "low nM range"},
      {"measurement": "IC50", "setting": "[2]; in vitro cell culture studies", "result": "~6", "unit": "nM"},
      {"measurement": "inhibition of human coronary artery smooth muscle cell proliferation", "setting": "[2]; in vitro cell culture studies, FIG. 51", "result": "completely inhibit"}
    ]},
    {"compound": "COc1cc2c(cc1O)CC[C@@H]1[C@@H]2CC[C@]2(C)[C@@H](O)CC[C@@H]12", "note": "[Panzem®, 2-methoxyestradiol]", "values": [
      {"measurement": "cell survival in MTS assay", "setting": "[4]", "result": "do not reduce human coronary artery smooth muscle cell survival"},
      {"measurement": "effect of addition to rapamycin-treated cells on the anti-proliferative rapamycin dose response curve", "setting": "[2]; [6]", "result": "increases the percent of inhibition of rapamycin alone"},
      {"measurement": "inhibition of human coronary artery smooth muscle cell proliferation in vitro", "setting": "[2]; synchronized cells, two percent fetal bovine serum, FIG. 66", "result": "extremely effective inhibitor"}
    ]},
    {"compound": "C[C@H]1c2cccc(O)c2C(=O)C2=C(O)[C@]3(O)C(=O)C(C(N)=O)=C(O)[C@@H](N(C)C)[C@@H]3[C@@H](O)[C@@H]21", "note": "[Dox, doxycycline]", "values": [
      {"measurement": "aortic dilatation (mean increase in aortic diameter)", "setting": "[3]; 60 mg/kg/day, twice-daily subcutaneous injections, day 7, saline control 125.±.18%", "result": "61.±.7%"},
      {"measurement": "dose of maximal inhibition of aortic dilatation", "setting": "[3]; dose-dependent effect, FIG. 76", "result": "about 12.5 mg/kg/day"}
    ]},
    {"compound": "Nc1nc(Cl)nc2c1ncn2[C@H]1C[C@H](O)[C@@H](CO)O1", "note": "[Cladribine, 2-chlorodeoxyadenosine]", "values": [
      {"measurement": "inhibition of human coronary artery smooth muscle cell proliferation", "setting": "[2]; non-synchronized cells stimulated with two percent fetal bovine serum, FIG. 58", "result": "completely inhibits"},
      {"measurement": "effect of addition to rapamycin-treated cells on the anti-proliferative rapamycin dose response curve", "setting": "[2]; [7]", "result": "leftward and upward shift"}
    ]},
    {"compound": "COc1cc([C@@H]2c3cc4c(cc3[C@@H](O[C@@H]3O[C@@H]5CO[C@@H](C)O[C@H]5[C@H](O)[C@H]3O)[C@H]3COC(=O)[C@H]23)OCO4)cc(OC)c1O", "note": "[etoposide]", "values": [
      {"measurement": "cytotoxicity in cell viability assay", "setting": "[1]; concentrations up to ten micromolar", "result": "non-cytotoxic"},
      {"measurement": "effect of addition to rapamycin-treated cells on the anti-proliferative rapamycin dose response curve", "setting": "[2]; [7]", "result": "leftward and upward shift"}
    ]},
    {"compound": "CO[C@H]1C[C@@H]2CC[C@@H](C)[C@@](O)(O2)C(=O)C(=O)N2CCCC[C@H]2C(=O)O[C@H]([C@H](C)C[C@@H]2CC[C@@H](OC(=O)C(C)(CO)CO)[C@H](OC)C2)CC(=O)[C@H](C)/C=C(\\C)[C@@H](O)[C@@H](OC)C(=O)[C@H](C)C[C@H](C)/C=C/C=C/C=C/1C", "note": "[CCI-779]", "values": [
      {"measurement": "concentration of CCI-779 in the final solution (HPLC)", "setting": "[5]", "result": 15000, "unit": "µg/mL"}
    ]}
  ]
}
